Experimental data as given in US11274332B2, “Methods of administering 3,4-diaminopyridine” (SERB SA, priority 2011, dated 2022).

Molecular target: T1, cloned human Kv1.3 potassium channel (Homo sapiens, UniProt P22001)
T1 construct: expressed in transfected cells
Test: PatchXpress inhibition of cloned human Kv1.3 in CHO cells (Example 6)
Type: cell-based
Settings: hKv1.3, up to 3000 μM
Description: The objective of this study was to examine the in vitro effects and determine the […] of 3,4-DAP phosphate and the metabolite N-(4-aminopyridin-3-yl) acetamide HCl on the following ion channels: cloned human Kv1.1 potassium channel (encoded by the human KCNA1 gene, expressed in HEK293 cells), cloned human Kv1.2 potassium channel (encoded by the human KCNA2 gene, expressed in HEK293 cells), cloned human Kv1.3 potassium channel (encoded by the human KCNA3 gene, expressed in CHO cells), cloned human Kv1.4 potassium channel (encoded by the human KCNA4 gene, expressed in HEK293 cells), cloned human Kv1.5 potassium channel (encoded by the human KCNA5 gene and expressed in CHO cells), responsible for IKur, ultra-rapid delayed rectifier potassium current.
Chemicals used in solution preparation were purchased from Sigma-Aldrich (St. Louis, Mo.), unless otherwise noted, and were of ACS reagent grade purity or higher. Stock solutions of each test article (100 mM, 30 mM and 1.00 mM 3,4-DAP phosphate and 100 mM N-(4-aminopyridin-3-yl)acetamide) were prepared in sterile water and stored refrigerated. […]
In preparation for a recording session, intracellular solution was loaded into the intracellular compartments of the Sealchip16. […] After establishment of a whole-cell configuration, membrane currents were recorded using dual-channel patch clamp amplifiers in the PatchXpress®. […]

T1 sequence (P22001 whole entry): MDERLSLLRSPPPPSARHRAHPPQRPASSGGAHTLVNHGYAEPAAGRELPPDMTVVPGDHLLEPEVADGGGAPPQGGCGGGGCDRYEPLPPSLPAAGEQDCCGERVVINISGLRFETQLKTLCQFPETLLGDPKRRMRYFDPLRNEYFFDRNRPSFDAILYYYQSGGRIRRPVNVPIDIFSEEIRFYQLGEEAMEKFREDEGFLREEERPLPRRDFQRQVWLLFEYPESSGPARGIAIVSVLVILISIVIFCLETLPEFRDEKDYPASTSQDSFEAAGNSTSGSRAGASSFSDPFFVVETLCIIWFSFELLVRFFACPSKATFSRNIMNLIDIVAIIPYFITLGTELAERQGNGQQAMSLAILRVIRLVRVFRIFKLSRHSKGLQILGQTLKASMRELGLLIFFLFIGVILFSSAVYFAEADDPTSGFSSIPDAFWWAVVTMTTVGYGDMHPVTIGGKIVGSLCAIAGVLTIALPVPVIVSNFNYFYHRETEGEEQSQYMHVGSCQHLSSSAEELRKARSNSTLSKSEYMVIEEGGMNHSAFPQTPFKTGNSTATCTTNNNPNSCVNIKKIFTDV

Question: For CC(=O)Nc1cnccc1N [3-N-acetyl amifampridine, N-(4-aminopyridin-3-yl)acetamide], which “activity on K+ channel” value is on record?
Answer: Its value is “inactive”.

Question: What about the “activity on K+ channel” value (listed as N-acetyl metabolite) of the same molecule?
Answer: Its value is “not active”.
